From patent publication US20060153773A1, “Contrast medium for mri” (priority 2003, published 2006)

Columns and labels:
[1] = system: injured left common carotid artery; experiment: In vivo MRI of common carotid arteries in balloon-injured living rat; details: for MRI signal in the injured left common carotid artery (image): 2 ml of 24 mM (about 160 μM/kg) via left femoral vein, T1 weighted spin echo, FIG. 6; for MRI signal intensity of injured common carotid artery versus normal common carotid artery: 2 ml of 24 mM via left femoral vein, time course, own agent stated at ten minutes after administration, FIG. 7
Method: This example is to evaluate the imaging capability of the contrast agent of the present invention by means of an in vivo experiment using a living rat. A rat (weighing about 300 g) was anesthetized with pentobarbital, and inserted with a balloon-tip catheter through the left femoral artery [FIG. 5 (a), 1]. The left common carotid artery was scraped by the balloon to injure the endothelia thereof. Then the rat was injected, through the left femoral vein [FIG. 5 (a), 2], with 2 ml (about 160 μM/kg) of physiological aqueous solution of the contrast agent as prepared in Example 1 (24 mM). At predetermined lapses of time, images were taken by MRI (the T1 weighted spin echo method) around the right and left common carotid artery [the cross section along the line N-N in FIG. 5 (a)]. The rat was supplementally anesthetized in order to keep it motionless during the imaging operation. For comparison, an evaluation experiment was also carried out in the same manner with a conventional agent, DTPA-Gd. […] In FIG. 6, by “injured” is designated the left common carotid artery injured by the balloon, corresponding to 4 in FIG. 5 (b), while by “intact” is designated the right common carotid artery, which is normal and corresponds to 5 in FIG. 5 (b). The numeral 3 in FIG. 5 (b) denotes the bronchium.

[2] = system: exfoliated endothelial site of aortic vascular section; experiment: In vitro MRI imaging capability on aortic vascular section extirpated from a pig; details: pig aortic section immersed in 10 mM aqueous solution for ten seconds
Method: For the contrast agent as synthesized (prepared) in Example 1, evaluation of in vitro imaging capability by MRI was carried out with an aortic vascular section extirpated from a pig, as a specimen.
The aortic vascular section extirpated from a pig was spread in a rectangular shape measuring about 2 cm×3 cm to prepare a vascular section sample. The endothelial surface of the left half of the sample was exfoliated with a scalpel. The sample was then immersed in a 10 mM aqueous solution of the contrast agent for ten seconds. Following thorough washing with physiological saline solution, the sample was subjected to the evaluation by MRI as well as by visual observation.
FIG. 2 (A) is a picture taken with a digital camera, which corresponds to the visual observation. […] FIG. 2 (B) is an MRI image (by the T1 weighted spin echo method).

[3] = system: exfoliated endothelial site (balloon-injured left carotid artery); experiment: Ex vivo MRI of extirpated carotid arteries after injection into balloon-injured living rat; format: in vivo; details: 2 ml of 24 mM via right jugular vein, FIG. 3
Method: The contrast agent of the present invention was evaluated for imaging capability by means of an ex vivo experiment using a living rat. A balloon-tip catheter was passed through the left femoral artery of the rat to injure the carotid artery with the balloon. Then 2 ml of aqueous saline solution containing 24 mM of the contrast agent (EBDTPA-Gd prepared in Example 1) was injected to the rat through the right jugular vein. After a predetermined period of time (10, 30 or 120 minutes), the right carotid artery and the left carotid artery were extirpated, developed, washed with a physiological saline, and then subjected to evaluation by MRI. The MRI evaluation was carried out by imaging the extirpated carotid artery sections, under the condition of being added with one or two droplets of physiological saline solution, by the T1 weighted spin echo method. In FIG. 3, by “injured” is denoted the exfoliated endothelial site (the left carotid artery), which had been injured by the balloon, while “intact” denotes the normal endothelial site (the right carotid artery). The photographs of the developed vascular samples as presented in FIG. 3 reveal purple coloring with intensities corresponding to the MRI signal intensities described later. The pictures (A) as presented in FIG. 3 below the photographs of the developed vascular samples illustrate the states of the samples prepared for the study by MRI. As illustrated, each carotid artery section was developed on a glass plate and covered with one or two droplets of physiological saline solution, for the MRI study.

[4] = Gd content remaining in various organs of the rat (ICP); format: in vivo
Method: This was also verified by measuring Gd (gadolinium) content remaining in various organs of the rat, in which the measurement was carried out as follows: The rat was administered with 1 ml heparin and a blood sample was taken from the rat. Then physiological saline solution was circulated throughout the rat, and the various organs were extirpated from the rat. To each organ and the blood sample was added 3 ml nitric acid, followed by standing for one hour. The resultant was added with 25% hydrogen peroxide aqueous solution and then allowed to stand overnight at room temperature. The resultant solution was warmed and added with 6 ml water. The insolubles were removed by filtration, and the filtrate was analyzed by ICP.

Row | colour of urine (excretion through the kidney) ([4]; rat, ten minutes after the administration) | Structure (SMILES) | MRI signal in the injured left common carotid artery (image) [1] | MRI signal intensity of injured common carotid artery versus normal common carotid artery [1] | visual observation of the exfoliated endothelial site ([2]; FIG. 2(A)) | MRI signal intensity at the exfoliated endothelial site relative to the normal endothelial site ([2]; T1 weighted spin echo, FIG. 2(C)) | difference in MRI signal intensity between exfoliated site and normal site ([3]; after 120 minutes) | difference in MRI signal intensity between exfoliated endothelial site and normal site ([3]; after thirty minutes) | MRI signal intensity of the injured site relative to the normal site ([3]; ten minutes from the injection) [times] | Gd content remaining in various organs ([4]; rat organs and blood, ICP, FIG. 4)
1 | – | O=C([O-])CN(CCN(CC(=O)[O-])CC(=O)O)CCN(CC(=O)[O-])CC(=O)O.[Gd+3] [DTPA-Gd, reference compound] | no such signal was observed | no substantial difference | – | – | – | – | – | –
2 | colored purple | Cc1cc(-c2ccc(NC(=O)CN(CCN(CCN(CC(=O)O)CC(=O)O)CC(=O)O)CC(=O)O)c(C)c2)ccc1N=Nc1ccc2c(S(=O)(=O)O)cc(S(=O)(=O)O)c(N)c2c1O [contrast agent of the present invention] | clear MRI signal | higher than that for the normal right common carotid artery | colored blue | about ten | no substantial difference | the difference in the signal intensity therebetween shortened | 1.74 | substantially no remaining Gd in organs other than the blood and kidney
